# From PMC12113540, “Isolation and Characterization of L-Asparaginase-Producing Bacteria from the Arabian–Persian Gulf Region: First Report on Bacillus xiamenensis ASP-J1-4 as a Producer and Its Potential Application” (Marine Drugs, 2025)
# Test system: T1, ASP-J1-4 L-ASNase
# T1 construct: gene ansZ; native enzyme from culture broth, acetone precipitation, dialysis, DEAE-Sepharose; 36 kDa (37 kDa in abstract) by SDS-PAGE; no L-glutaminase activity
# Assay: ammonia release, Nessler's reagent, A436; Lineweaver-Burk plot
# Assay type: biochemical, Bacillus xiamenensis
# Conditions: 0.02-2.42 mM L-ASN; regular assay conditions (pH and temperature not restated for kinetics)
structure (smiles),measurement,value
NC(=O)C[C@H](N)C(=O)O [L-ASN],Km,150 µM
